# Experimental data from US9901592B2 (priority 2008, dated 2018).
# Like-named read-outs stand apart in the source and are kept apart here.
# Legend:
# S. pneumoniae [1] = assay type: cell-based; settings: for Mutant selection frequencies: S. pneumoniae
# [2] = tested on: viridans group streptococci (VGS); assay type: cell-based; settings: VGS (51)
# S. pneumoniae [3] = assay: neutropenic mouse thigh infection; assay type: in vivo; settings: QD, PO
# S. pyogenes [4] = assay: MIC of the strains of the mouse systemic infection model; assay type: cell-based; settings: Streptococcus pyogenes
# S. pneumoniae [5] = assay: mouse subcutaneous abscess model; assay type: in vivo; settings: S. pneumoniae 1629, 10 mg/Kg PO
# Protocol: Example. Efficacy was evaluated in several infection models. […] PD50s were determined 24 hr post infection. CEM-101 was further evaluated in a subcutaneous abscess mouse model against S. pneumoniae. CD-1 female mice were infected via SC injection of bacteria mixed with cyclodextran beads. Two hr post infection, mice received a single oral dose of CEM 101 or control agents. At 48 hr post dose, mice were euthanized, abscesses aseptically removed and bacteria enumerated. CFU per abscess was determined and compared to the untreated control. […] 24 hr post treatment, the thighs were processed and CFU/gram of thigh determined.
# Example. Mouse Subcutaneous Abscess. Bacteria were prepared from an overnight plate culture by re-suspending in saline and adjusting the suspension to a 0.1 OD at 625 nm of a 1:10 dilution. The adjusted bacterial suspension was mixed 1:2 with cyclodextran beads prepared as per package instructions. The right flanks of the mice were shaven and injected subcutaneously with 0.2 ml of the bacterial inoculum. Two hours post infection mice were treated via oral gavage with either test article or control drug. 48 hours post infection, mice were euthanized, abscesses aseptically removed, homogenized, serially diluted and plated on bacterial growth agar. After overnight incubation, colonies were counted and CFUs/gram of abscess were determined.
# Example. The ability of CEM101 to reduce the microbial load in abscess infection model was also assessed against S. pneumoniae isolates.
# S. pyogenes [6] = assay type: cell-based; design: MIC: unit not given beside the values; settings: for MIC50 / MIC90: Streptococcus pyogenes
# S. pyogenes [7] = assay type: cell-based
# [8] = S. pyogenes TEL R, Macr-R, 10 strains
# [9] = S. pyogenes TEL S, Macr-R, 30 strains
# [10] = S. pyogenes TEL S, Macr-S, 10 strains
compound,measurement,setting,value
"CC[C@H]1OC(=O)[C@H](C)C(=O)[C@H](C)[C@@H](O[C@@H]2O[C@H](C)C[C@H](N(C)C)[C@H]2O)[C@](C)(OC)C[C@@H](C)C(=O)[C@H](C)[C@H]2N(CCCCn3cnc(-c4cccnc4)c3)C(=O)O[C@]12C [TEL, telithromycin]",Mutant selection frequencies,S. pneumoniae [1]; at 2×MIC,1.1×10^−9-1.3×10^−4
same,Mutant selection frequencies,S. pneumoniae [1]; at 8×MIC,<1.5×10^−10-4.8×10^−6
same,single step mutation frequency,"S. pneumoniae [1]; strain 24 Macrolide-R [erm(B)], 2 × MIC",1.3 × 10^−4
same,single step mutation frequency,"S. pneumoniae [1]; strain 24 Macrolide-R [erm(B)], 4 × MIC",2.5 × 10^−6
same,single step mutation frequency,"S. pneumoniae [1]; strain 24 Macrolide-R [erm(B)], 8 × MIC",1.7 × 10^−6
same,single step mutation frequency,"S. pneumoniae [1]; strain 1076 Macrolide-R [erm(B)&mef(A)], 2 × MIC",6.5 × 10^−6
same,single step mutation frequency,"S. pneumoniae [1]; strain 1076 Macrolide-R [erm(B)&mef(A)], 4 × MIC",9.7 × 10^−6
same,single step mutation frequency,"S. pneumoniae [1]; strain 1076 Macrolide-R [erm(B)&mef(A)], 8 × MIC",4.8 × 10^−6
same,single step mutation frequency,"S. pneumoniae [1]; strain 1077 Macrolide-S, 2 × MIC",1.1 × 10^−9
same,single step mutation frequency,"S. pneumoniae [1]; strain 1077 Macrolide-S, 4 × MIC",<5.5 × 10^−10
same,single step mutation frequency,"S. pneumoniae [1]; strain 1077 Macrolide-S, 8 × MIC",<5.5 × 10^−10
same,single step mutation frequency,"S. pneumoniae [1]; strain 1635 Macrolide-R [erm(A)], 2 × MIC",<2.7 × 10^−9
same,single step mutation frequency,"S. pneumoniae [1]; strain 1635 Macrolide-R [erm(A)], 4 × MIC",<2.7 × 10^−9
same,single step mutation frequency,"S. pneumoniae [1]; strain 1635 Macrolide-R [erm(A)], 8 × MIC",<2.7 × 10^−9
same,single step mutation frequency,"S. pneumoniae [1]; strain 2686 Macrolide-R [L4 mutation], 2 × MIC",2.2 × 10^−5
same,single step mutation frequency,"S. pneumoniae [1]; strain 2686 Macrolide-R [L4 mutation], 4 × MIC",2.2 × 10^−9
same,single step mutation frequency,"S. pneumoniae [1]; strain 2686 Macrolide-R [L4 mutation], 8 × MIC",<1.1 × 10^−9
same,single step mutation frequency,"S. pneumoniae [1]; strain 3009 Macrolide-R [23S rRNA mutation], 2 × MIC",3.8 × 10^−7
same,single step mutation frequency,"S. pneumoniae [1]; strain 3009 Macrolide-R [23S rRNA mutation], 4 × MIC",<1.5 × 10^−10
same,single step mutation frequency,"S. pneumoniae [1]; strain 3009 Macrolide-R [23S rRNA mutation], 8 × MIC",<1.5 × 10^−10
same,single step mutation frequency,"S. pneumoniae [1]; strain 3665 Macrolide-R [mef(A)], 2 × MIC",7.5 × 10^−9
same,single step mutation frequency,"S. pneumoniae [1]; strain 3665 Macrolide-R [mef(A)], 4 × MIC",2.5 × 10^−9
same,single step mutation frequency,"S. pneumoniae [1]; strain 3665 Macrolide-R [mef(A)], 8 × MIC",<2.5 × 10^−10
same,single step mutation frequency,"S. pneumoniae [1]; strain 7127 Macrolide-S [S20N in L4, A105V in L22], 2 × MIC",<5.0 × 10^−9
same,single step mutation frequency,"S. pneumoniae [1]; strain 7127 Macrolide-S [S20N in L4, A105V in L22], 4 × MIC",<5.0 × 10^−9
same,single step mutation frequency,"S. pneumoniae [1]; strain 7127 Macrolide-S [S20N in L4, A105V in L22], 8 × MIC",<5.0 × 10^−9
same,MIC50,[2],0.015 µg/mL
same,MIC90,[2],0.25 µg/mL
same,MIC Range,[2],≦0.008-0.5 μg/ml
same,Dose for 1 log10 Reduction from 24 hour controls,S. pneumoniae [3]; S. pneumoniae 1629,11.0 mg/Kg
same,Dose for 3 log10 Reduction from 24 hour controls,S. pneumoniae [3]; S. pneumoniae 1629,15.5 mg/Kg
same,Dose for 1 log10 Reduction from 24 hour controls,S. pneumoniae [3]; S. pneumoniae 6303,4.75 mg/Kg
same,Dose for 2 log10 Reduction from 24 hour controls,S. pneumoniae [3]; S. pneumoniae 6303,6.5 mg/Kg
same,Dose for 3 log10 Reduction from 24 hour controls,S. pneumoniae [3]; S. pneumoniae 6303,8.75 mg/Kg
same,MIC,S. pyogenes [4]; S. pyogenes (erythromycin R),1 µg/mL
same,MIC,S. pyogenes [4]; S. pyogenes (macrolide susceptible),0.015 µg/mL
same,average log10 CFU/gram of abscess,S. pneumoniae [5]; 24 hours,about 3 log10 CFU/gram
same,average log10 CFU/gram of abscess,S. pneumoniae [5]; 48 hours,about 4.5 log10 CFU/gram
same,MIC,S. pyogenes [6]; MAC-R S. pyogenes 3029,(16)
same,MIC50,S. pyogenes [6]; [8],32 µg/mL
same,MIC90,S. pyogenes [6]; [8],32 µg/mL
same,MIC50,S. pyogenes [6]; [9],0.125 µg/mL
same,MIC90,S. pyogenes [6]; [9],0.5 µg/mL
same,MIC50,S. pyogenes [6]; [10],0.03 µg/mL
same,MIC90,S. pyogenes [6]; [10],0.03 µg/mL
same,Mutant selection frequencies,"S. pyogenes [7]; S. pyogenes, at 2×MIC",<8.3×10^−11-7.7×10^−8
same,single step mutation frequency,"S. pyogenes [7]; strain 237 Macrolide-R [L4 mutation], 2 × MIC",<2.0 × 10^−10
same,single step mutation frequency,"S. pyogenes [7]; strain 237 Macrolide-R [L4 mutation], 4 × MIC",<2.0 × 10^−10
same,single step mutation frequency,"S. pyogenes [7]; strain 237 Macrolide-R [L4 mutation], 8 × MIC",<2.0 × 10^−10
same,single step mutation frequency,"S. pyogenes [7]; strain 2011 Macrolide-R [mef(A)], 2 × MIC",3.8 × 10^−8
same,single step mutation frequency,"S. pyogenes [7]; strain 2011 Macrolide-R [mef(A)], 4 × MIC",<6.3 × 10^−10
same,single step mutation frequency,"S. pyogenes [7]; strain 2011 Macrolide-R [mef(A)], 8 × MIC",<6.3 × 10^−10
